Source: patent US10597388B2, “Pyridazinone herbicides” (FMC CORPORATION, priority 2014, dated 2020)

How the values were obtained:
Format in all cases: in vivo
[1] = tested on: galium (catchweed bedstraw, Galium aparine); assay: Test A greenhouse herbicide test, postemergence; settings: for Plant response rating, Galium: 125 g ai/ha, 0 to 100 scale where 0 is no effect and 100 is complete control; for Galium plant response rating: 500 g ai/ha, 0 to 100 scale, 0 is no effect, 100 is complete control
In short: (§1)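 Pot-grown plants (loam soil/sand blend), 2–10 cm tall at the one- to two-leaf stage, received postemergence sprays of formulated test chemical. After about 10 d in the greenhouse, injury was rated visually against untreated controls on a 0 (no effect) to 100 (complete control) scale.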

[2] = tested on: blackgrass (Alopecurus myosuroides); assay: Test A greenhouse herbicide test, postemergence; settings: for Plant response rating, Blackgrass: 125 g ai/ha, 0 to 100 scale where 0 is no effect and 100 is complete control; for Blackgrass plant response rating: 500 g ai/ha, 0 to 100 scale, 0 is no effect, 100 is complete control
In short: as §1

corn (Zea mays) = assay: Test A greenhouse herbicide test, pre- and postemergence; settings: Postemergence; for Plant response rating, Corn: 125 g ai/ha, 0 to 100 scale where 0 is no effect and 100 is complete control; for Corn plant response rating: 500 g ai/ha, 0 to 100 scale, 0 is no effect, 100 is complete control
Description: (§2) Seeds of plant species selected from barnyardgrass (Echinochloa crus-galli), kochia (Kochia scoparia), ragweed (common ragweed, Ambrosia elatior), ryegrass, Italian (Italian ryegrass, Lolium multiflorum), crabgrass, large (large crabgrass, Digitaria sanguinalis), foxtail, giant (giant foxtail, Setaria faberii), momingglory (Ipomoea spp.), pigweed (Amaranthus retroflexus), velvetleaf (Abutilon theophrasti), wheat (Triticum aestivum), and corn (Zea mays) were planted into a blend of loam soil and sand and treated preemergence with a directed soil spray using test chemicals formulated in a non-phytotoxic solvent mixture which included a surfactant.
(§3) At the same time, plants selected from these crop and weed species and also blackgrass (Alopecurus myosuroides), and galium (catchweed bedstraw, Galium aparine) were planted in pots containing the same blend of loam soil and sand and treated with postemergence applications of test chemicals formulated in the same manner. Plants ranged in height from 2 to 10 cm and were in the one- to two-leaf stage for the postemergence treatment. Treated plants and untreated controls were maintained in a greenhouse for approximately 10 d, after which time all treated plants were compared to untreated controls and visually evaluated for injury. Plant response ratings, summarized in Table A, are based on a 0 to 100 scale where 0 is no effect and 100 is complete control. A dash (-) response means no test result.

[3] = tested on: pigweed (Amaranthus retroflexus); assay: as above
Description: as §2, §3

[4] = tested on: wheat (Triticum aestivum); assay: as above; settings: Postemergence; for Plant response rating, Wheat: 125 g ai/ha, 0 to 100 scale where 0 is no effect and 100 is complete control; for Wheat plant response rating: 500 g ai/ha, 0 to 100 scale, 0 is no effect, 100 is complete control
Description: as §2, §3

kochia (Kochia scoparia) = assay: as above
Description: as §2, §3

[5] = tested on: foxtail, giant (giant foxtail, Setaria faberii); assay: as above
Description: as §2, §3

[6] = tested on: barnyardgrass (Echinochloa crus-galli); assay: as above
Description: as §2, §3

[7] = tested on: ryegrass, Italian (Italian ryegrass, Lolium multiflorum); assay: as above
Description: as §2, §3

[8] = tested on: ragweed (common ragweed, Ambrosia elatior); assay: as above
Description: as §2, §3

[9] = tested on: ducksalad (Heteranthera limosa); assay: Test B flooded paddy test; settings: 250 g ai/ha, Flood; visual rating on scale of 0 to 100 where 0 is no effect and 100 is complete control; 13 to 15 d after treatment
Procedure: (§4) Plant species in the flooded paddy test selected from rice (Oryza sativa), sedge, umbrella (small-flower umbrella sedge, Cyperus difformis), ducksalad (Heteranthera limosa), and barnyardgrass (Echinochloa crus-galli) were grown to the 2-leaf stage for testing. At time of treatment, test pots were flooded to 3 cm above the soil surface, treated by application of test compounds directly to the paddy water, and then maintained at that water depth for the duration of the test. Treated plants and controls were maintained in a greenhouse for 13 to 15 d, after which time all species were compared to controls and visually evaluated. Plant response ratings, summarized in Table B, are based on a scale of 0 to 100 where 0 is no effect and 100 is complete control. A dash (-) response means no test result.

[10] = tested on: barnyardgrass (Echinochloa crus-galli); assay: Test B flooded paddy test; settings: 250 g ai/ha, Flood; visual rating on scale of 0 to 100 where 0 is no effect and 100 is complete control; 13 to 15 d after treatment
Procedure: as §4

[11] = tested on: sedge, umbrella (small-flower umbrella sedge, Cyperus difformis); assay: Test B flooded paddy test; settings: 250 g ai/ha, Flood; visual rating on scale of 0 to 100 where 0 is no effect and 100 is complete control; 13 to 15 d after treatment
Procedure: as §4

rice (Oryza sativa) = assay: Test B flooded paddy test; settings: 250 g ai/ha, Flood; visual rating on scale of 0 to 100 where 0 is no effect and 100 is complete control; 13 to 15 d after treatment
Procedure: as §4

[12] = Postemergence, 125 g ai/ha, 0 to 100 scale where 0 is no effect and 100 is complete control
[13] = Postemergence, 500 g ai/ha, 0 to 100 scale, 0 is no effect, 100 is complete control
[14] = Preemergence, 125 g ai/ha, 0 to 100 scale where 0 is no effect and 100 is complete control
[15] = Preemergence, 500 g ai/ha, 0 to 100 scale, 0 no effect, 100 complete control
[16] = Preemergence, 500 g ai/ha, 0 to 100 scale where 0 is no effect and 100 is complete control

Row | Compound | Plant response rating, Galium [1] | Galium plant response rating [1] | Plant response rating, Blackgrass [2] | Blackgrass plant response rating [2] | Plant response rating, Corn (corn (Zea mays)) | Corn plant response rating (corn (Zea mays)) | Plant response rating, Pigweed [3, 12] | Pigweed plant response rating [3, 13] | Pigweed plant response rating [3, 14] | Plant response rating, Wheat [4] | Wheat plant response rating [4] | Plant response rating, Kochia (kochia (Kochia scoparia); [12]) | Kochia plant response rating (kochia (Kochia scoparia); [13]) | Kochia plant response rating (kochia (Kochia scoparia); [14]) | Plant response rating, Foxtail, Giant [5, 12] | Foxtail, Giant plant response rating [5, 13] | Foxtail, Giant plant response rating [5, 14] | Plant response rating, Barnyardgrass [6, 12] | Barnyardgrass plant response rating [6, 13] | Barnyardgrass plant response rating [6, 14] | further results
1 | COc1ccc(-c2c(O)c(C)nn(C)c2=O)c2ccccc12 [Compound 58] | 70 | 100 | 20 | 50 | 0 | 0 | 0 | 20 | 0 | 0 | 20 | 20 | 90 | 20 | 0 | 10 | 0 | 0 | 0 | 0 | Plant response rating, Pigweed [3, 15]: 20; Plant response rating, Kochia (kochia (Kochia scoparia); [15]): 80; Plant response rating, Foxtail, Giant [5, 15]: 0; Plant response rating, Barnyardgrass [6, 15]: 20; Plant response rating, Ryegrass, Italian [7, 12]: 60; Ryegrass, Italian plant response rating [7, 13]: 80; Ryegrass, Italian plant response rating [7, 14]: 70; Plant response rating, Ryegrass, Italian [7, 15]: 100; Plant response rating, Ragweed [8, 12]: 0; Ragweed plant response rating [8, 13]: 60; Ragweed plant response rating [8, 14]: 70; Plant response rating, Ragweed [8, 15]: 80; Plant response rating, Ducksalad [9]: 0; Plant response rating, Barnyardgrass [10]: 0; Plant response rating, Sedge, Umbrella [11]: 0; Plant response rating, Rice (rice (Oryza sativa)): 0
2 | CCC(=O)Oc1c(C)nn(C)c(=O)c1-c1ccc(Cl)c2ccccc12 [Compound 62] | 100 | 100 | 70 | 80 | 10 | 30 | 100 | 100 | 100 | 0 | 50 | 100 | 100 | 90 | 80 | 90 | 50 | 70 | 90 | 50 | Plant response rating, Pigweed [3, 15]: 100; Plant response rating, Kochia (kochia (Kochia scoparia); [15]): 90; Plant response rating, Foxtail, Giant [5, 15]: 90; Plant response rating, Barnyardgrass [6, 15]: 90; Plant response rating, Ryegrass, Italian [7, 12]: 100; Ryegrass, Italian plant response rating [7, 13]: 100; Ryegrass, Italian plant response rating [7, 14]: 100; Plant response rating, Ryegrass, Italian [7, 15]: 100; Plant response rating, Ragweed [8, 12]: 100; Ragweed plant response rating [8, 13]: 100; Ragweed plant response rating [8, 14]: 70; Plant response rating, Ragweed [8, 15]: 90; Plant response rating, Ducksalad [9]: 20; Plant response rating, Barnyardgrass [10]: 20; Plant response rating, Sedge, Umbrella [11]: 75; Plant response rating, Rice (rice (Oryza sativa)): 0
3 | COC(=O)Oc1c(C)nn(C)c(=O)c1-c1ccc(Cl)c2ccccc12 [Compound 63] | 100 | 100 | 70 | 80 | 0 | 40 | 100 | 100 | 100 | 0 | 40 | 100 | 100 | 100 | 70 | 90 | 40 | 60 | 90 | 80 | Plant response rating, Pigweed [3, 15]: 100; Plant response rating, Kochia (kochia (Kochia scoparia); [15]): 100; Plant response rating, Foxtail, Giant [5, 15]: 70; Plant response rating, Barnyardgrass [6, 15]: 90; Plant response rating, Ryegrass, Italian [7, 12]: 100; Ryegrass, Italian plant response rating [7, 13]: 100; Ryegrass, Italian plant response rating [7, 14]: 100; Plant response rating, Ryegrass, Italian [7, 15]: 100; Plant response rating, Ragweed [8, 12]: 100; Ragweed plant response rating [8, 13]: 100; Ragweed plant response rating [8, 14]: 80; Plant response rating, Ragweed [8, 15]: 90; Plant response rating, Ducksalad [9]: 30; Plant response rating, Barnyardgrass [10]: 0; Plant response rating, Sedge, Umbrella [11]: 65; Plant response rating, Rice (rice (Oryza sativa)): 0
4 | CCOc1ccc2oc(CC)c(-c3c(O)c(C)nn(C)c3=O)c2c1 [Compound 68] | 0 | 0 | 0 | 10 | 0 | 0 | 0 | 0 | 0 | 0 | 0 | 0 | 0 | 0 | 10 | 50 | 10 | 70 | 80 | 10 | Plant response rating, Pigweed [3, 16]: 0; Plant response rating, Kochia (kochia (Kochia scoparia); [16]): 0; Plant response rating, Foxtail, Giant [5, 16]: 50; Plant response rating, Barnyardgrass [6, 15]: 40; Plant response rating, Ryegrass, Italian [7, 12]: 0; Ryegrass, Italian plant response rating [7, 13]: 0; Ryegrass, Italian plant response rating [7, 14]: 0; Plant response rating, Ryegrass, Italian [7, 16]: 0; Plant response rating, Ragweed [8, 12]: 0; Ragweed plant response rating [8, 13]: 0; Ragweed plant response rating [8, 14]: 0; Plant response rating, Ragweed [8, 16]: 20; Plant response rating, Ducksalad [9]: 0; Plant response rating, Barnyardgrass [10]: 0; Plant response rating, Sedge, Umbrella [11]: 30; Plant response rating, Rice (rice (Oryza sativa)): 0
5 | Cc1nn(C)c(=O)c(-c2c(C)n(C)c3ccc(Cl)cc23)c1O [Compound 74] | 10 | 20 | 20 | 40 | 0 | 0 | 40 | 50 | 30 | 0 | 0 | 30 | 30 | 0 | 0 | 20 | 0 | 0 | 10 | 0 | Plant response rating, Pigweed [3, 16]: 50; Plant response rating, Kochia (kochia (Kochia scoparia); [16]): 0; Plant response rating, Foxtail, Giant [5, 16]: 0; Plant response rating, Barnyardgrass [6, 15]: 0; Plant response rating, Ryegrass, Italian [7, 12]: 0; Ryegrass, Italian plant response rating [7, 13]: 0; Ryegrass, Italian plant response rating [7, 14]: 0; Plant response rating, Ryegrass, Italian [7, 16]: 0; Plant response rating, Ragweed [8, 12]: 0; Ragweed plant response rating [8, 13]: 10; Ragweed plant response rating [8, 14]: 0; Plant response rating, Ragweed [8, 16]: 0; Plant response rating, Ducksalad [9]: 0; Plant response rating, Barnyardgrass [10]: 0; Plant response rating, Sedge, Umbrella [11]: 0; Plant response rating, Rice (rice (Oryza sativa)): 0
